{
  "source": "patent US10722526B2",
  "about": "“Pharmaceutical compositions for radioprotection or radiomitigation and methods for using them” (KOREA INSTITUTE OF RADIOLOGICAL & MEDICAL SCIENCES, priority 2015, dated 2020)",
  "key": {"[1]": {"tested_on": "pulmonary artery endothelium, C57BL/6 mouse, 16 Gy on the lung", "experiment": "Radiation-induced pulmonary fibrosis in mouse, trichrome staining of collagen (Example 5)", "type": "in vivo", "details": "150 mg/kg i.p. 1 hour before 16 Gy irradiation of the lung; compared to IR; **: P<0.01", "method": "(§1) Tissue from a mouse was fixed in 10% neutral formalin for one day, and paraffin sections were prepared. The paraffin sections were then reacted for 5 minutes in each of xylene, and 95%, 90%, and 70% ethanol solutions in that order to deparaffinize the paraffin around the tissue for staining. For antigen activation, the tissue was soaked in a 0.1 M citric acid solution (pH 6.0) and boiled.\nThe tissue was then reacted in Bouin's solution for 1 minute, Weigert's hematoxylin for 10 minutes, phosphotunstic/phosphomolydic acid for 10 minutes, aniline blue for 5 minutes, and 1% acetate for 1 minute in that order. After dehydration, the tissue was sealed with a cover glass, and observed with a confocal microscope.\nTo observe whether the symptoms of pulmonary fibrosis induced after radiotherapy include pulmonary fibrosis of vascular endothelial cells, a C57BL/6 mouse was exposed to 16 Gy radiation on the lung. The lung was extracted from the mouse, and collagen, a protein appearing on the cross-section of aorta during the fibrosis of pulmonary artery endothelial cell, was detected by trichrome staining. The group treated with 2-methoxyestradiol was intraperitoneally injected in an amount of 150 mg/kg 1 hour before irradiation. […]"}, "[2]": {"tested_on": "Human pulmonary artery endothelial cells (HPAEC)", "experiment": "Immunofluorescence staining of irradiated HPAECs (Example 4)", "type": "cell-based", "details": "10 ng/mL, 12 hours before 10 Gy radiation", "method": "(§2) Human pulmonary artery endothelial cells (HPAEC) bought from Promocell were cultured in a culture chamber at a temperature of 37° C. under a 5% CO2 condition using a medium including various growth factors necessary for growth of the vascular endothelial cell.\n(§3) HPAECs were plated in 3.5 cm, 6 cm, and 10 cm culture dishes and cultured in a CO2 incubator at 37° C. so that the cells were 70% to 80% confluent. 2-Methoxyestradiol was selectively pre-treated according to the test groups. 10 Gy gamma rays (^137Cs) (Atomic Energy of Canada, LTd., Canada) were radiated at a dose of 3.81 Gy/min.\nHPAECs were cultured on the cover slide, selectively pre-treated with 2-methoxyestradiolin according to test groups, and irradiated. HPAECs were then fixed in 10% neutral formalin for one day, and washed with phosphate buffered saline (PBS) before staining. After blocking with 2% bovine serum albumin (dissolved inPBS) before the first antibody reaction, VE-cadherin, hypoxia-inducible factor 1-alpha (HIF-1α), SMAD, p-SMAD2/3, and α-SMA antibodies, diluted at 1:100, were reacted at 4° C. for 16 hours. After washing with PBS, the second antibodies having fluorescent stains attached were diluted at 1:500 and reacted at 25° C. for 1 hour. The nuclei were stained with a fluorescent stain 4′,6-diamidino-2-phenylindole (DAPI). After washing with PBS, a drop of glycerol was applied to attach the stained cells to the glass slide.\nHuman pulmonary artery endothelial cells which received 10 Gy radiation were fixed in 10% neutral formalin, and reacted with phalloidin, CA-9, and VE-cadherin antibodies. Then, fluorescent-labeled secondary immunoglobulins were used to stain CA9, phalloidin, and VE-cadherin in red, green, and white, respectively. The cell nuclei were stained in blue using DAPI. The group received 10 Gy radiation 12 hours after treating HPAECs with 10 ng/mL 2-methoxyestradiol."}, "[3]": {"tested_on": "lung of a mouse model, 90 Gy irradiation", "experiment": "Radiation-induced lung tissue damage, H&E staining (Example 1)", "type": "in vivo", "details": "60 mg/kg i.p. 1 hour before 90 Gy irradiation; 2 weeks after irradiation; compared to untreated group (IR)", "method": "(§4) Tissue from a mouse was fixed in 10% neutral formalin for one day, and paraffin sections were prepared. The paraffin sections were then reacted for 5 minutes in each of xylene, and 95%, 90%, and 70% ethanol solutions in that order to deparaffinize the paraffin around the tissue. The tissue was then put into hematoxylin for 1 minute to stain the nucleus and washed with running water for 10 minutes, followed by dipping in eosin for 30 seconds to stain the cytoplasm. The tissue was then dipped in 50%, 70%, 90%, and 95% ethanol, and xylene in that order, and a drop of a mounting solution was applied thereto. The tissue was covered with a cover slide and observed with a microscope (Carl Zeiss Vision).\nA mouse was exposed to 90 Gy radiation on the thorax in a size of 3 mm. Lung tissue from the mouse model was fixed in 10% neutral formalin, and paraffin sections were prepared. Using the hematoxylin and eosin staining method, inflammatory reactions and fibrosis of the tissue were observed. The cell nuclei were stained in blue and the cytoplasm was stained in pink. One hour before the irradiation, the mouse model received an intraperitoneal injection of 60 mg/kg 2-methoxyestradiol. Two weeks after the irradiation, inflammatory reactions and fibrosis were observed using H&E staining at the site of tissue damage."}, "[4]": {"tested_on": "skin tissue, C57BL/6 mouse, 20 Gy on the thorax", "experiment": "Radiation-induced in vivo skin damage, infiltration of inflammatory cells (Example 3)", "details": "2 weeks after irradiation, compared to IR", "method": "as §4\nTo observe whether inflammatory responses and fibrosis of skin occur during tissue damage induced after radiotherapy, a C57BL/6 mouse was exposed to 20 Gy radiation on the thorax in a size of 7 mm. Skin was extracted from the mouse, and infiltration of inflammatory cells in the skin tissue was observed. The group pre-treated with 2-methoxyestradiol (IR+pre-treatment2Me) received an intraperitoneal injection in an amount of 60 mg/kg 1 hour before the irradiation, and that post-treated with 2-methoxyestradiol (IR+post-treatment2Me) received an intraperitoneal injection in an amount of 60 mg/kg 24 hours after the irradiation."}, "[5]": {"tested_on": "blood vessels of the skin, C57BL/6 mouse, 20 Gy on the thorax", "experiment": "Radiation-induced in vivo vascular injury of skin (Example 2)", "details": "compared to untreated group (IR)", "method": "Tissue from a mouse was fixed in 10% neutral formalin for one day, and paraffin sections were prepared. The paraffin sections were then reacted for 5 minutes in each of xylene, and 95%, 90%, and 70% ethanol solutions in that order to deparaffinize the paraffin around the tissue. For antigen activation, the tissue was immersed in 0.1 M citrate (pH 6.0) and brought to a boil for 30 minutes, followed by reacting with 3% hydrogen peroxide for 15 minutes. Meanwhile, the tissue was then reacted in phosphate based saline buffer (PBS, 0.1% triton x-100 included) including CD31 (abcam, 1:100 dilution) at 4° C. for 16 hours. After washing with PBS, secondary antibodies having biotin conjugated were diluted at 1:200 and incubated at room temperature for 30 minutes. Avidin biotin complex (ABC) was applied and incubated at room temperature for 30 minutes, and 3,3′-DAB(3,3′-diaminobenzidine) was added for color detection. Hematoxylin was used for counterstaining. The tissue was then dipped in 50%, 70%, 90%, and 95% ethanol, and xylene in that order, and a drop of a mounting solution was applied thereto. The tissue was covered with a cover slide and observed with a microscope (Carl Zeiss Vision).\nSkin was extracted from the mouse, and vascular changes inside the skin were observed. […]"}, "[6]": {"tested_on": "pulmonary artery endothelium, mouse model with lung cancer (mutated p53 and ras), 16 Gy", "experiment": "Fibrosis of vascular endothelium after irradiation in mouse model with lung cancer (Example 7)", "type": "in vivo", "details": "150 mg/kg i.p. 1 hour before 16 Gy irradiation, compared to IR", "method": "as §4, with “solutions in order to” for “solutions in that order to”, “around the tissue for staining. The tissue” for “around the tissue. The tissue”\nas §1\nThe tissue was then reacted in Bouin's solution for 1 minute, Weigert's hematoxylin for 10 minutes, phosphotunstic/phosphomolydic acid for 10 minutes, aniline blue for 5 minutes, and 1% acetate for 1 minute in that order. […]"}, "[7]": {"tested_on": "p-SMAD, Smad 2/3, α-SMA in HPAECs", "experiment": "Western blot of fibrosis-related proteins in irradiated HPAECs (Example 6)", "type": "cell-based, human", "details": "12 hours before 10 Gy radiation", "method": "as §2, §3\nAfter the cultured cells were irradiated, specimens in which the cells were dissolved in a solution of 150 mM sodium chloride, 40 mM Tris-Cl (pH 8.0), 0.1% NP-40 were prepared to observe intracellular proteins. Sodium dodecyl sulfate polyacrylamide gel electrophoresis (SDS-PAGE) was performed on the specimens, followed by Western blot analysis. The proteins separated by electrophoresis were transferred to a nitrocellulose membrane, and the amount of protein expression was analyzed using the immunoblotting method.\nIn order to observe changes in the expression amount of the proteins related to HPAEC pulmonary fibrosis according to the concentrations of 2-methoxyestradiol (0.5 μM and 1 μM), the cultured HPAECs were pre-treated with 0.5 μM or 1 μM 2-methoxyestradiol and received 10 Gy radiation 12 hours later. Western blot analysis was then performed using p-SMAD, Smad 2/3, and alpha smooth muscle actin (α-SMA) antibodies. To measure a quantitative amount of the protein, Western blot was performed using β-actin antibodies."}, "[8]": {"details": "post-treated: 60 mg/kg i.p. 24 hours after 20 Gy irradiation"}, "[9]": {"details": "pre-treated: 60 mg/kg i.p. 1 hour before 20 Gy irradiation"}, "[10]": {"details": "1 μM, decrease in particular at 1 μM"}},
  "data": [
    {"smiles": "COc1cc2c(cc1O)CC[C@@H]1[C@@H]2CC[C@]2(C)[C@@H](O)CC[C@@H]12", "note": "[2-methoxyestradiol]", "values": [
      {"measurement": "collagen stained in blue in the aortic wall, trichrome staining", "setting": "[1]", "result": "significant decrease"},
      {"measurement": "CA-9 staining, immunofluorescence", "setting": "[2]", "result": "significant decrease"},
      {"measurement": "VE-cadherin (white around the cell membrane), immunofluorescence", "setting": "[2]", "result": "significant increase"},
      {"measurement": "phalloidin staining, immunofluorescence", "setting": "[2]", "result": "significant decrease"},
      {"measurement": "cell infiltration (inflammatory cells) in lung tissue, H&E staining", "setting": "[3]", "result": "significantly reduced"},
      {"measurement": "fibrosis around blood vessels in lung tissue, H&E staining", "setting": "[3]", "result": "significantly reduced"},
      {"measurement": "number of infiltrated inflammatory cells inside the skin tissue", "setting": "[4]; [8]", "result": "significantly reduced"},
      {"measurement": "number of infiltrated inflammatory cells inside the skin tissue", "setting": "[4]; [9]", "result": "significantly reduced"},
      {"measurement": "skin vascular injury", "setting": "[5]; [8]", "result": "significant reduction"},
      {"measurement": "skin vascular injury", "setting": "[5]; [9]", "result": "significant reduction"},
      {"measurement": "collagen stained in blue around the vascular endothelium, trichrome staining", "setting": "[6]", "result": "significant decrease"},
      {"measurement": "Smad 2/3 expression, Western blot", "setting": "[7]; 0.5 μM", "result": "relative decrease"},
      {"measurement": "p-SMAD expression, Western blot", "setting": "[7]; 0.5 μM", "result": "relative decrease"},
      {"measurement": "α-SMA expression, Western blot", "setting": "[7]; 0.5 μM", "result": "relative decrease"},
      {"measurement": "Smad 2/3 expression, Western blot", "setting": "[7]; [10]", "result": "relative decrease"},
      {"measurement": "p-SMAD expression, Western blot", "setting": "[7]; [10]", "result": "relative decrease"},
      {"measurement": "α-SMA expression, Western blot", "setting": "[7]; [10]", "result": "relative decrease"}
    ]}
  ]
}
